Data on 20 molecules can be found in patent US12162888B2, “Carboxamides as ubiquitin-specific protease inhibitors” (Valo Early Discovery, Inc., priority 2018, dated 2024).

pIC50: −log10 of the molar value.

The target in the assay is T1, USP28 (His-tagged USP28-FL-mammalian) (Homo sapiens, UniProt Q96RU2).
T1 construct: Expression of USP28 (1-1077)-TEV-6*His (pTT5 vector) was carried out in Expi293f cells; made in house; host or cells: Expi293F cells (pTT5 vector)
T1 sequence (Q96RU2 1-1077): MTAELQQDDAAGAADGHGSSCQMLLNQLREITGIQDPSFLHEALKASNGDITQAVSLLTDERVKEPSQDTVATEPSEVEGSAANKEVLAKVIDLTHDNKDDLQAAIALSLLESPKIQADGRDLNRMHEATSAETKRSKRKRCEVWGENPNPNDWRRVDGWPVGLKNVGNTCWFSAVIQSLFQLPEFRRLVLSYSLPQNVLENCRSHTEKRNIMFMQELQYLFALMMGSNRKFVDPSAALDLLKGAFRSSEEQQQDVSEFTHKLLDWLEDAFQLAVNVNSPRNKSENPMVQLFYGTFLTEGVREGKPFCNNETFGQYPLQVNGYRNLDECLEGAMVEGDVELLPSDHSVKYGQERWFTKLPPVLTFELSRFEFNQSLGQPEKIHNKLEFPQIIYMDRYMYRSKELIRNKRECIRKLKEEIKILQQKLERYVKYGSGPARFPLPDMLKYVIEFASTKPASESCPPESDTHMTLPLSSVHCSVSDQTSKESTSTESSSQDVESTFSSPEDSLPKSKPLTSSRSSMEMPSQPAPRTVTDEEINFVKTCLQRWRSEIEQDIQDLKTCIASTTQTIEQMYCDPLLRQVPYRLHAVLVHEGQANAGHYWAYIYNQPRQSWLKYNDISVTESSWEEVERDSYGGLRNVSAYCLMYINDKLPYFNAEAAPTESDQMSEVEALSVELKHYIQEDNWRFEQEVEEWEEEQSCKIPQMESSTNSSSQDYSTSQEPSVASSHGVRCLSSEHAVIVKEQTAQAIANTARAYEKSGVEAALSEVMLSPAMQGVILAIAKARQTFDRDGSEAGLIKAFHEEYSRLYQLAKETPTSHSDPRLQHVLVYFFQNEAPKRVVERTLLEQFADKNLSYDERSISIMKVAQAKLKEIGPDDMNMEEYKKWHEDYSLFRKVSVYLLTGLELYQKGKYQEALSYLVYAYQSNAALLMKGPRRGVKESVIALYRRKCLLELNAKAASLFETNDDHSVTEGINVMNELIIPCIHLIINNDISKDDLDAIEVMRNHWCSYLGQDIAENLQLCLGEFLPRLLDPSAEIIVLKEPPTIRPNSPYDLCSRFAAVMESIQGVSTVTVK
Briefly: Ubiquitin-Rhodamine 110 Assay for USP28 Activity, Example A-1(a). It counts as biochemical. To be noted: biochemical IC50 range, Ubiquitin-Rhodamine 110 assay, read-out: USP28 A-1(a). An outline of the steps:
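IC50s were fitted with a 4-parameter logistic to percent inhibition relative to no-enzyme and DMSO controls, using Rhodamine 110 fluorescence (485/535 nm) released from 25 nM Ub-Rh110. The enzyme was Expi293F-expressed USP28-FL-His at […], preincubated 30 min with compound (10-point, 25 μM top) in Tris pH 8.0 buffer containing BGG and Triton X-100. Substrate turnover ran 45 min at room temperature and was stopped with 10 mM citric acid.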
As for `Cc1ccc2c(N)c(C(=O)NC3COc4cc(N5CC6NCC(F)(F)C6C5)ccc4C3)sc2n1` [Example 654, N-[(3R)-7-[(3aS,6aS)-3,3-difluorooctahydropyrrolo[3,4-b]pyrrol-5-yll-3,4-dihydro-2H-1-benzopyran-3-yl]-3-amino-6-methylthieno[2,3-b]pyridine-2-carboxamide], the pIC50 is 7.30 to 9.00. For `Cc1ccc2c(N)c(C(=O)N[C@H]3COc4cc(N5CC6[C@H](C5)NCC6(F)F)ccc4C3)sc2n1` (stereo partly drawn) [Example 655, N-[(3R)-7-[(6aR)-3,3-difluorooctahydropyrrolo[3,4-b]pyrrol-5-yl]-3,4-dihydro-2H-1-benzopyran-3-yl]-3-amino-6-methylthieno[2,3-b]pyridine-2-carboxamide], the pIC50 is 7.30 to 9.00. `Cc1ccc2c(N)c(C(=O)NC3COc4cc(N5CC6CCNCC65)cc(F)c4C3)sc2n1` [Example 664, 3-amino-N-[(3R)-7-[(1S,6R)-3,8-diazabicyclo[4.2.0]octan-8-yl]-5-fluoro-3,4-dihydro-2H-1-benzopyran-3-yl]-6-mcthylthicno[2,3-b]pyridinc-2-carboxamide]: the pIC50 is 7.30 to 9.00. As for `CO[C@]12CCN[C@H]1CN(c1ccc3c(c1)OC[C@H](NC(=O)c1sc4nc(C)ccc4c1N)C3)C2` [Example 666, N-[(3R)-7-[(3aS,6aS)-3a-methoxyoctahydropyrrolo[2,3-c]pyrrol-5-yl}-3,4-dihydro-2H-1-benzopyran-3-yl]-3-amino-6-methylthicno[2,3-b]pyridine-2-carboxamide], the pIC50 was 7.30 to 9.00. `CO[C@@]12CCN[C@@H]1CN(c1ccc3c(c1)OC[C@H](NC(=O)c1sc4nc(C)ccc4c1N)C3)C2` [Example 667, N-[(3R)-7-[(3aR,6aR)-3a-methoxyoctahydropyrrolo[2,3-c]pyrrol-5-yl]-3,4-dihydro-2H-1-benzopyran-3-yl]-3-amino-6-methylthieno[2,3-b]pyridine-2-carboxamide]: the pIC50 was 7.30 to 9.00. For the molecule `CCNC1CN(c2ccc3c(c2)OCC(NC(=O)c2sc4nc(C)ccc4c2N)C3)CC1COC` [Example 668, 3-amino-N-[(3R)-7-[(3R,4S)-3-(ethylamino)-4-(mcthoxymcthyl)pyrrolidin-1-yl]-3,4-dihydro-2H-1-benzopyran-3-yl]-6-methylthicno[2,3-b]pyridinc-2-carboxamide], the pIC50 was 7.30 to 9.00. To `Cc1ccc2c(N)c(C(=O)NC3COc4cc(N5CC(N)C(COC(F)(F)F)C5)ccc4C3)sc2n1` [Example 672, 3-amino-N-[(3R)-7-[(3R,4R)-3-amino-4-[(trifluoromethoxy)methyl]pyrrolidin-1-yl]-3,4-dihydro-2H-1-benzopyran-3-yl]-6-methylthicno[2,3-b]pyridine-2-carboxamide] belongs 6.70 to 7.30; to `Cc1ccc2c(N)c(C(=O)N[C@H]3COc4cc(N5C[C@H](COC(F)(F)F)[C@H](N)C5)ccc4C3)sc2n1` [Example 673, 3-amino-N-[(3R)-7-[(3S,4S)-3-amino-4-[(trifluoromethoxy)methyl]pyrrolidin-1-yl]-3,4-dihydro-2H-1-benzopyran-3-yl]-6-methylthieno[2,3-b]pyridine-2-carboxamide], 7.30 to 9.00. Turning to `CNc1ncc(C(=O)N[C@H]2COc3cc(N4CCNCC4)ccc3C2)c2[nH]ccc12` [Example 674, 4-(methylamino)-N-[(3R)-7-(piperazin-1-yl)-3,4-dihydro-2H-1-benzopyran-3-yl]-1Hpyrrolo[3,2-c]pyridine-7-carboxamide], the pIC50 is 5.70 to 6.70. For the molecule `CNc1ncc(C(=O)N[C@H]2COc3cc(N4CCNCC4)ccc3C2)c2[nH]cc(Cl)c12` [Example 675, 3-chloro-4-(methylamino)-N-[(3R)-7-(piperazin-1-yl)-3,4-dihydro-2H-1-benzopyran-3-yl]-1H-pyrrolo[3,2-c]pyridine-7-carboxamide], the pIC50 was 5.70 to 6.70.

For `CCOc1ncc(C(=O)N[C@H]2COc3cc(N4CCNCC4)ccc3C2)c2[nH]ccc12` [Example 676, 4-ethoxy-N-[(3R)-7-(piperazin-1-yl)-3,4-dihydro-2H-1-benzopyran-3-yl]-1Hpyrrolo[3,2-c]pyridine-7-carboxamide], the pIC50 is 5.70 to 6.70.

With `CNc1ncc(C(=O)N[C@H]2COc3cc(N4CCNCC4)ccc3C2)c2c1CCCN2` [Example 677, 5-(methylamino)-N-[(3R)-7-(piperazin-1-yl)-3,4-dihydro-2H-1-benzopyran-3-yl]-1,2,3,4-tetrahydro-1,6-naphthyridine-8-carboxamide], the pIC50 was 5.70 to 6.70. With `CCOc1ncc(C(=O)N[C@H]2COc3cc(N4CCNCC4)ccc3C2)c2c1CCCN2` [Example 678, 5-ethoxy-N-[(3R)-7-(piperazin-1-yl)-3,4-dihydro-2H-1-benzopyran-3-yl]-1,2,3,4-tetrahydro-1,6-naphthyridine-8-carboxamide] the figure was 7.30 to 9.00; with `CN[C@H]1CN(c2ccc3c(c2)OC[C@H](NC(=O)c2sc4nc(C)ccc4c2N)C3)C[C@H]1COC` [Example 679, 3-amino-N-[(3R)-7-[(3R,4R)-3-(methoxymethyl)-4-(methylamino)pyrrolidin-1-yl]-3,4-dihydro-2H-1-benzopyran-3-yl]-6-methylthieno[2,3-b]pyridine-2-carboxamide], 7.30 to 9.00; with `CN[C@@H]1CN(c2ccc3c(c2)OC[C@H](NC(=O)c2sc4nc(C)ccc4c2N)C3)C[C@@H]1COC` [Example 680, 3-amino-N-[(3R)-7-[(3S,4S)-3-(methoxymethyl)-4-(methylamino)pyrrolidin-1-yl]-3,4-dihydro-2H-1-benzopyran-3-yl]-6-methylthieno[2,3-b]pyridine-2-carboxamide], 7.30 to 9.00. To `Cc1ccc2c(N)c(C(=O)N[C@H]3COc4cc(N5C[C@H](N)C6(C5)OCCO6)ccc4C3)sc2n1` [Example 681, 3-amino-N-[(3R)-7-[(9S)-9-amino-1,4-dioxa-7-azaspiro[4.4]nonan-7-yl]-3,4-dihydro-2H-1-benzopyran-3-yl]-6-methylthieno[2,3-b]pyridine-2-carboxamide] belongs 7.30 to 9.00.

Turning to `Cc1ccc2c(N)c(C(=O)N[C@H]3COc4cc(N5C[C@@H](N)C6(C5)OCCO6)ccc4C3)sc2n1` [Example 682, 3-amino-N-[(3R)-7-[(9R)-9-amino-1,4-dioxa-7-azaspiro[4.4]nonan-7-yl]-3,4-dihydro-2H-1-benzopyran-3-yl]-6-methylthieno[2,3-b]pyridine-2-carboxamide], the pIC50 is 6.70 to 7.30. With `Cc1ccc2c(N)c(C(=O)N[C@H]3COc4cc(N5CC[C@]6(CCCN6)C5)cc(F)c4C3)sc2n1` [Example 683, 3-amino-N-[(3R)-7-[(5R)-1,7-diazaspiro [4.4]nonan-7-yl]-5-fluoro-3,4-dihydro-2H-1-benzopyran-3-yl]-6-methylthieno [2,3-b]pyridine-2-carboxamide] the figure was 7.30 to 9.00; with `Cc1ccc2c(N)c(C(=O)N[C@H]3COc4cc(N5CC[C@@]6(CCCN6)C5)cc(F)c4C3)sc2n1` [Example 684, 3-amino-N-[(3R)-7-[(5S)-1,7-diazaspiro[4.4]nonan-7-yl]-5-fluoro-3,4-dihydro-2H-1-benzopyran-3-yl]-6-methylthieno [2,3-b]pyridine-2-carboxamide], 7.30 to 9.00; with `Cc1ccc2c(N)c(C(=O)N[C@H]3COc4cc(OC[C@@H]5CNCC5(F)F)ccc4C3)sc2n1` [Example 685, 3-amino-N-[(3R)-7-{[(3S)-4,4-difluoropyrrolidin-3-yl]methoxy}-3,4-dihydro-2H-1-benzopyran-3-yl]-6-methylthieno[2,3-b]pyridine-2-carboxamide], 7.30 to 9.00.
